Tests used:
[1] = Evaluation of hydrophilicity (solubility in test solvent); type: physicochemical; details: 25° C.; test solvent 10% by weight dipropylene glycol, 10% ethanol, 80% purified water
Method: Test solvent: A mixed solvent containing 10% by weight of dipropylene glycol, 10% by weight of ethanol, and 80% by weight of purified water (based on 100% by weight of the total amount of dipropylene glycol, ethanol, and purified water).
Based on the difference in solubility, the hydrophilicity was evaluated as follows.
Particularly high hydrophilicity: A solubility of 1.0 or more (g/100 g test solvent)
High hydrophilicity: A solubility of 0.2 to less than 1.0 (g/100 g test solvent)
Low hydrophilicity: A solubility of 0.1 to less than 0.2 (g/100 g test solvent)
No hydrophilicity: A solubility of less than 0.1 (g/100 g test solvent) or the occurrence of suspended solids

[2] = UV absorbing properties (UV spectrum in ethanol); type: physicochemical; details: 5 ppm in ethanol, quartz cell 1 cm optical path length
Method: The resulting compound 1 was dissolved at a concentration of 5 ppm in ethanol as a solvent to form a sample solution. After the prepared sample solution was injected into a quartz cell (1 cm in optical path length), the UV spectrum of the sample was measured with a spectrophotometer (UV-2450 manufactured by SHIMADZU CORPORATION), in which the maximal absorption wavelength (λmax) and the absorbance at the maximal absorption wavelength were determined. When the maximal absorption wavelength falls within the ultraviolet wavelength range, the higher absorbance at the maximal absorption wavelength indicates the better UV absorbing properties.

| Solubility [1] | Absorbance at maximal absorption wavelength [2] | Maximal absorption wavelength (λmax) [2] [nm] | Compound |
| --- | --- | --- | --- |
| 0.2 g/100 g test solvent | 0.20 | 335 | O=C(COc1ccc(C=C2NC(=O)N(CC(=O)OCCOCCO)C2=O)cc1)OCCOCCO [Compound 5, 5-[4-[2-[2-(2-hydroxyethoxyl)ethoxy]-2-oxoethoxy]benzylidene]-3-[2-[2-(2-hydroxyethoxyl)ethoxy]-2-oxoethyl]hydantoin] |
| 25< g/100 g test solvent | 0.18 | 328 | COc1ccc(C=C2C(=O)N(CC(=O)N(CCO)CCO)C(=O)N2CC(=O)N(CCO)CCO)cc1 [Compound 6, 5-(4-methoxybenzylidene]-1,3-bis[2-[bis(2-hydroxyethyl)amino]-2-oxoethyl]hydantoin] |
| 1.2 g/100 g test solvent | 0.30 | 336 | O=C(COc1ccc(C=C2NC(=O)N(CC(=O)N(CCO)CCO)C2=O)cc1)N(CCO)CCO [Compound 3, 5-[4-[2-[bis(2-hydroxyethyl)amino]-2-oxoethoxy]benzylidene]-3-[2-[bis(2-hydroxyethyl)amino]-2-oxoethyl]hydantoin] |
| <0.05 g/100 g test solvent |  |  | CCCCC(CC)COC(=O)CCN1C(=O)NC(=Cc2ccc(OC)c(OC)c2)C1=O (stereo not shown) [1′, 2-ethylhexyl dimethoxybenzylidene dioxoimidazolidine propionate, reference compound] |

Continued, molecule first:

| Compound | Solubility [1] | Absorbance at maximal absorption wavelength [2] | Maximal absorption wavelength (λmax) [2] [nm] |
| --- | --- | --- | --- |
| O=C(CCN1C(=O)NC(=Cc2ccc(OCCOCCO)cc2)C1=O)N(CCO)CCO [Compound 4, 5-[4-[2-(2-hydroxyethoxyl)ethoxy]benzylidene]-3-[3-[bis(2-hydroxyethyl)amino]-3-oxopropyl]hydantoin] | 1.5 g/100 g test solvent | 0.34 | 338 |
| COc1ccc(C=C2C(=O)N(CC(=O)OCCOCCO)C(=O)N2CC(=O)OCCOCCO)cc1 [Compound 7, 5-(4-methoxybenzylidene)-1,3-bis[2-[2-(2-hydroxyethoxy)ethoxy]-2-oxoethyl]hydantoin] | 25< g/100 g test solvent | 0.14 | 326 |
| O=C1NC(=Cc2ccc(OCCOCCO)cc2)C(=O)N1CCOCCO [Compound 1, 5-[4-[2-(2-hydroxyethoxyl)ethoxy]benzylidene]-3-[2-(2-hydroxyethoxyl)ethyl]hydantoin] | 2.0 g/100 g test solvent | 0.43 | 335 |
| O=C1C(=Cc2ccc(OCCOCCOCCO)cc2)N(CCOCCOCCO)C(=O)N1CCOCCOCCO [Compound 2, 5-[4-[2-[2-(2-hydroxyethoxyl)ethoxy]ethoxy]benzylidene]-1,3-bis[2-[2-(2-hydroxyethoxyl)ethoxy]ethyl]hydantoin] | 25< g/100 g test solvent | 0.12 | 325 |
